Values belong to the compound of their own block, whether it stands above or below them.
How the values were obtained:
[1] = Urine odor panel ranking, dye-coated Poise pads without SN-AK (Example 8); set-up: species or system human
Description: (§1) Qualitative odor reduction was also assessed against common odors, such as garlic and urine. Specifically, panelists assessed odorant-containing jars by carefully unscrewing, and then raising the lid of each jar in a controlled manner, such that the odor was not diluted by the ambient air. The jars were wrapped and coded to ensure that the sample identity was unknown.
Specifically, Acid Green 25, Acid Green 41, Acid Blue 129, and D&C Green No. 5 were tested. Powders of the aforementioned dyes (commercially available from Sigma-Aldrich Chemical Co., Inc. of St. Louis, Mo. and Noveon Hilton Davis, Inc. of Cincinnati, Ohio) were dissolved in water so that the concentration of the dye was 8 millimolar (equivalent to 0.5 wt. %). Samples of tissue wrap were created by cutting 9″×6″ sheets from a roll of tissue (1 ply white cellulose wrap sheet having a basis weight of 16.6 grams per square meter) were weighed, oven-dried overnight at 90° C., and weighed again the next day to calculate the amount of residual water in each wrap. The wraps were then dipped into a respective dye solution and hung to dry overnight, after which they were weighed again. The treated wraps were then rinsed in deionized water to remove any unbound dye and hung again to dry overnight. After weighing the treated wraps, they were once again oven-dried overnight at 90° C. and weighed to determine the dry add-on percentages ([…]). The add-on percentage for each sample was approximately 1.6 wt. %.
Two different sets of Poise® pads (commercially available from Kimberly-Clark Corp.) were tested. The first set of dye-coated tissue wraps (without SN-AK) was inserted around the pledgette area of the Poise® pads. The Poise® pads were cut open and the tissue wrap surrounding the pledgette carefully removed and replaced with dye-coated tissue wrap. The second set of dye-coated tissue wraps (without SN-AK) used dye coatings on the top of the pad (rather than inside). These pads were constructed by spreading the solution over the top of each pad. To prevent the superabsorbent area of the pad from soaking up the solution, the pads were cut open prior to coating and a layer of plastic wrap was placed between the top layer of the pad and the superabsorbent core. A pad that was cut open, but coated only with water on top, was used as a control. All pads were dried at room temperature overnight before placing them in mason jars for testing. For control purposes, a Poise® pad was also tested that was cut open, but retained its original tissue wrap. In addition, Serenity® Night & Day™ incontinence pads, which are commercially available from SCA Incontinence Care of Eddystone, Pa. and said to employ OdaSorb Plus™ to reduce odor, were also used for comparison.
Fresh human female urine was then pooled, and 50-milliliter aliquots were applied to the pads using a pipette. The mason jars were placed in a 37° C. incubator overnight for assessment the next day. […] Panelists were again asked to rank any secondary odors for unpleasantness on a scale of 1-5.

[2] = Urine odor panel ranking, dye powders in urine, 8 millimolar (Example 5); set-up: species or system human; conditions: 8 millimolar dye in urine; for urine malodor reduction (panel): 6 and 24 hours
Description: as §1, with “unknown. The effectiveness of various quinone dyes in reducing urine odor was compared. Human female urine was initially collected and pooled by a nurse on staff at Kimberly-Clark Corporation.” for “unknown.”

[3] = Urine odor and secondary odor panel ranking, dye powders in urine, 8 millimolar (Example 7); set-up: species or system human; conditions: for Average Urine Odor Ranking (with statistical corrections), Avg. Score: ignoring statistical anomalies; for Secondary Odor Ranking: scale 1 to 5, 5 extremely unpleasant, individual panelists' scores
Description: as §1
The effectiveness of various dyes in reducing urine odor was compared. […] Human female urine was initially collected and pooled by a nurse on staff at Kimberly-Clark Corporation. The pooled urine was added to mason jars in 50-milliliter aliquots using an automated pipette aid. Powders of the aforementioned dyes (commercially available from Sigma-Aldrich Chemical Co., Inc. of St. Louis, Mo. and Noveon Hilton Davis, Inc. of Cincinnati, Ohio) were weighed and placed into the mason jars containing 50 milliliters of urine so that the final concentration of the dye powder was 8 millimolar (equivalent to 0.5 wt. %). The mason jars were placed in an incubator overnight at 37° C.
To aid in the assessment of the dyes, the mason jars were divided into two groups for a morning assessment, and the best of both groups were compared in an afternoon assessment (after a total of 24 hours). In addition to ranking the jars from least to most malodorous (on a scale from 1 to 7, with 7 being the most malodors), panelists were also asked to judge whether there were secondary (non-urine) odors present and, if so, the extent that the secondary odors were unpleasant (on a scale from 1 to 5, with 5 being extremely unpleasant).
In this assessment, panelists were given instructions to rank the least malodorous jar as “1” and the most malodorous jar as “10,” remaining free to rank the other jars between 2-9.

[4] = Redox potential (redox potentiometry); assay type: physicochemical; conditions: compared with hydrogen (set at 0)
Excerpt: The ability of quinone compounds to accept electrons from another substance (i.e., be reduced) may be quantified using a technique known as redox potentiometry. Redox potentiometry is a technique that measures (in volts) the affinity of a substance for electrons—its electronegativity—compared with hydrogen (which is set at 0). Substances more strongly electronegative than (i.e., capable of oxidizing) hydrogen have positive redox potentials. Substances less electronegative than (i.e., capable of reducing) hydrogen have negative redox potentials. The greater the difference between the redox potentials of two substances (ΔE), the greater the vigor with which electrons will flow spontaneously from the less positive to the more positive (more electronegative) substance. As is well known in the art, redox potential may be measured using any of a variety of commercially available meters, such as an Oxidation Reduction Potential (ORP) tester commercially available from Hanna Instruments, Inc. of Woonsocket, R.I. The redox potential of the quinone compounds may, for instance, be less than about −50 millivolts (mV), in some embodiments less than about −150 mV, in some embodiments less than about −300 mV, and in some embodiments, less than about −500 mV. Although not always the case, the redox potential may vary based on the number and location of functional groups, such as sulfonic acid, on the quinone structure. For example, 2-sulfonic acid anthraquinone has a redox potential of −380 mV; 2,6-disulfonic acid anthraquinone has a redox potential of −325 mV; and 2,7-disulfonic acid anthraquinone has a redox potential of −313 mV. Likewise, 2-sulfonic acid naphthaquinone has a redox potential of −60 mV. The use of other functional groups may also have an affect on the ultimate redox potential of the compound. For example, Acid Blue 25, which also contains amino- and aramid functional groups, has a redox potential of −605 mV.

[5] = Urine odor panel ranking, dye powders in urine, 1.6 millimolar (Example 6); set-up: species or system human; conditions: 1.6 millimolar dye in urine, 24 hours, 37° C.
Description: as §1
The effectiveness of various dyes in reducing urine odor was compared. The dyes chosen for this example were powders of Acid Blue 25, Acid Blue 45, Acid Blue 129, FD&C Blue No. 1 (a triarylmethane dye), Acid Green 27, Acid Green 41, and Mordant Violet 5 (Alizarin Violet 3R) (commercially available from Sigma-Aldrich Chemical Co., Inc. of St. Louis, Mo.), as well as D&C Green No. 5 (commercially available from Noveon Hilton Davis, Inc. of Cincinnati, Ohio). Human female urine was initially collected and pooled by a nurse on staff at Kimberly-Clark Corporation. […] Powders of the aforementioned dyes were weighed and placed into the mason jars containing 50 milliliters of urine so that the final concentration of the dye powder was 1.6 millimolar (equivalent to 0.1 wt. %). […] A score of “10” was assigned to the most malodorous jar and a score of “1” was assigned to the least malodorous jar.

[6] = 1st set (tissue-wrap coating), After 30 Hours
[7] = After 6 Hours, 10 most, 1 least malodorous
[8] = After 24 Hours, 10 most, 1 least malodorous
[9] = After 24 Hours, top performers of both groupings, 1 least, 10 most malodorous
[10] = Second Grouping, morning assessment, 8 millimolar, higher = more malodorous
[11] = after 24 hours, top performers, 1 least, 10 most malodorous
[12] = First Grouping, morning assessment, 8 millimolar, 7 most malodorous
[13] = First Grouping, scale 1 to 7, 7 most malodorous

SMILES: Cc1cc(C)c(Nc2cc(S(=O)(=O)[O-])c(N)c3c2C(=O)c2ccccc2C3=O)c(C)c1.[Na+] [Acid Blue 129]
Urine Odor Ranking (number of panelists): ranking 1 [1, 6]: 1 number of panelists | Urine Odor Ranking (number of panelists): ranking 3 [1, 6]: 1 number of panelists | Urine Odor Ranking (number of panelists): ranking 4 [1, 6]: 2 number of panelists | Average Urine Odor Ranking, Avg. Score ([1]; 1st set (tissue-wrap coating), final pooled assessment): 3.00 | urine odor reduction (panel), assessment within set ([1]; first set of pads (dye-coated tissue wrap around pledgette), overnight 37° C.): performed best for the first set of pads | overall urine odor control performance (panel) ([1]; tissue-wrap coating, final pooled assessment): performed very well | urine malodor reduction (panel) [2]: functioned effectively in reducing urine malodor | Avg. Ranking (odor) [2, 7]: 1.6 | Ranking (number of panelists): ranking 1 [2, 7]: 4 number of panelists | Ranking (number of panelists): ranking 4 [2, 7]: 1 number of panelists | Avg. Ranking (odor) [2, 8]: 1.3 | Ranking (number of panelists): ranking 1 [2, 8]: 5 number of panelists | Ranking (number of panelists): ranking 3 [2, 8]: 1 number of panelists | Urine Odor Ranking (number of panelists): ranking 1 [3, 9]: 1 number of panelists | Urine Odor Ranking (number of panelists): ranking 3 [3, 9]: 1 number of panelists | Urine Odor Ranking (number of panelists): ranking 4 [3, 9]: 1 number of panelists | Urine Odor Ranking (number of panelists): ranking 5 [3, 9]: 1 number of panelists | Urine Odor Ranking (number of panelists): ranking 6 [3, 9]: 1 number of panelists | Average Urine Odor Ranking, Avg. Score ([3]; Second Grouping): 1.8 | Urine Odor Ranking (number of panelists): ranking 1 [3, 10]: 3 number of panelists | Urine Odor Ranking (number of panelists): ranking 3 [3, 10]: 2 number of panelists | urine odor reduction (panel) ([3]; after 24 hours, top performers of both groupings): achieved the best odor reduction | Average Urine Odor Ranking, Avg. Score [3, 11]: 3.8 | Average Urine Odor Ranking (with statistical corrections), Avg. Score ([3]; after 24 hours, top performers): 3.8

SMILES: O=C1c2ccc(S(=O)(=O)O)cc2C(=O)c2ccc(S(=O)(=O)O)cc21 [2,6-disulfonic acid anthraquinone]
redox potential [4]: −325 mV

SMILES: O=C1c2ccc(S(=O)(=O)O)cc2C(=O)c2cc(S(=O)(=O)O)ccc21 [2,7-disulfonic acid anthraquinone]
redox potential [4]: −313 mV

SMILES: Cc1ccc(Nc2cccc3c2C(=O)c2cccc(Nc4ccc(C)cc4S(=O)(=O)[O-])c2C3=O)c(S(=O)(=O)[O-])c1.[Na+].[Na+]
urine odor reduction (panel) [5]: did not perform as well in reducing odor as D&C Green No. 5 | Urine Odor Ranking (number of panelists): ranking 4 [3, 12]: 1 number of panelists | Urine Odor Ranking (number of panelists): ranking 6 [3, 12]: 3 number of panelists | Urine Odor Ranking (number of panelists): ranking 7 [3, 12]: 1 number of panelists | Secondary Odor Ranking ([3]; First Grouping): 1 | Average Urine Odor Ranking, Avg. Score [3, 13]: 5.8

SMILES: Nc1c(S(=O)(=O)[O-])cc(Nc2ccccc2)c2c1C(=O)c1ccccc1C2=O.[Na+] [Acid Blue 25]
redox potential [4]: −605 mV | Urine Odor Ranking (number of panelists): ranking 4 [3, 9]: 1 number of panelists | Urine Odor Ranking (number of panelists): ranking 7 [3, 9]: 1 number of panelists | Urine Odor Ranking (number of panelists): ranking 9 [3, 9]: 2 number of panelists | Urine Odor Ranking (number of panelists): ranking 10 [3, 9]: 1 number of panelists | Secondary Odor Ranking ([3]; After 24 Hours): 4 | Urine Odor Ranking (number of panelists): ranking 1 [3, 12]: 1 number of panelists | Urine Odor Ranking (number of panelists): ranking 2 [3, 12]: 1 number of panelists | Urine Odor Ranking (number of panelists): ranking 3 [3, 12]: 1 number of panelists | Urine Odor Ranking (number of panelists): ranking 4 [3, 12]: 1 number of panelists | Urine Odor Ranking (number of panelists): ranking 5 [3, 12]: 1 number of panelists | Secondary Odor Ranking ([3]; First Grouping): 2 | Average Urine Odor Ranking, Avg. Score [3, 13]: 3.0 | Average Urine Odor Ranking, Avg. Score [3, 11]: 6.8 | Average Urine Odor Ranking (with statistical corrections), Avg. Score ([3]; after 24 hours, top performers): 8.8 | urine odor reduction (panel) ([3]; first grouping): functioned effectively to reduce odor

SMILES: Cc1ccc(Nc2ccc(Nc3ccc(C)cc3S(=O)(=O)[O-])c3c2C(=O)c2ccccc2C3=O)c(S(=O)(=O)[O-])c1.[Na+].[Na+] [D&C Green No. 5]
urine malodor reduction (panel) [2]: functioned effectively in reducing urine malodor | Avg. Ranking (odor) [2, 7]: 3.0 | Ranking (number of panelists): ranking 1 [2, 7]: 1 number of panelists | Ranking (number of panelists): ranking 3 [2, 7]: 3 number of panelists | Ranking (number of panelists): ranking 5 [2, 7]: 1 number of panelists | Avg. Ranking (odor) [2, 8]: 5.2 | Ranking (number of panelists): ranking 4 [2, 8]: 3 number of panelists | Ranking (number of panelists): ranking 5 [2, 8]: 1 number of panelists | Ranking (number of panelists): ranking 7 [2, 8]: 2 number of panelists | Urine Odor Ranking (number of panelists): ranking 2 [3, 9]: 1 number of panelists | Urine Odor Ranking (number of panelists): ranking 4 [3, 9]: 1 number of panelists | Urine Odor Ranking (number of panelists): ranking 7 [3, 9]: 2 number of panelists | Urine Odor Ranking (number of panelists): ranking 10 [3, 9]: 1 number of panelists | Secondary Odor Ranking ([3]; After 24 Hours): 4 | urine odor reduction (panel) ([3]; Second Grouping): did not perform as well compared to the other dyes | Urine Odor Ranking (number of panelists): ranking 4 [3, 10]: 3 number of panelists | Urine Odor Ranking (number of panelists): ranking 5 [3, 10]: 2 number of panelists | Secondary Odor Ranking ([3]; Second Grouping): 4 | Average Urine Odor Ranking, Avg. Score [3, 11]: 6.0 | Average Urine Odor Ranking (with statistical corrections), Avg. Score ([3]; after 24 hours, top performers): 7.0

redox potential [4]: −60 mV
SMILES: O=C1C=C(S(=O)(=O)O)C(=O)c2ccccc21 [2-sulfonic acid naphthaquinone]

SMILES: O=C1c2ccccc2C(=O)c2cc(S(=O)(=O)O)ccc21 [2-sulfonic acid anthraquinone]
redox potential [4]: −380 mV

Reference: patent publication US8409618B2, “Odor-reducing quinone compounds” (Kimberly-Clark Worldwide, Inc., priority 2002, dated 2013)
